System: bacteria/yeast and mold
Experiment: Antimicrobial Preservation Effectiveness Test (micro robustness), double challenge test
Assay type: cell-based
Details: for microbial control: preservative in mouthwash formulation, separately or in combination
Description: The Antimicrobial Preservation Effectiveness Test is used to determine the antimicrobial preservation effectiveness of water-based product formulations by means of a double challenge test. Products are developed to withstand microbial challenges introduced by normal consumer use. The test is run on an aged sample (13 weeks, 40° C.). The test uses two pools of microorganisms: bacteria/yeast and mold. The product is challenged at a 1% level at day 0 and at day 7. Reduction of the inoculum is monitored over a 28 day period. The following are the acceptance criteria for mouth wash formulas. • Bacteria and Yeast must show a 99.9% reduction (3 logs) of the bacterial inoculum as determined by plate count on day 7 following each inoculation. No increase after day 7 of the second inoculation and for the remainder of the test within normal variation of the data. • Mold must show a 90.0% reduction (1 log) of the mold inoculum as determined by the plate count on day 14 following the second inoculation (day 21). No increase from day 14 to day 21 of the second inoculation of the test within normal variation of the data.

| SMILES | microbial control | antimicrobial efficacy (amount reduced to 0.001%) |
| --- | --- | --- |
| OCc1ccccc1 [Benzyl alcohol, benzyl alcohol] | acceptable microbial control |  |
| Cn1sccc1=O [MIT, methylisothiazolinone] | acceptable microbial control | retaining antimicrobial efficacy |
| CCCCCCCC(=O)OCC(O)CO (stereo not shown) [Lexgard/gmcy, glycerol monocaprylate] | acceptable microbial control |  |
